Assay results as given in PubChem BioAssay (NCI).
Values joined by “and” are separate entries in the source; they are usually repeats but may differ in a detail not shown here. Equal entries are not always repeated.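 Cells were grown in 96-well plates and exposed to each compound for 48 hours at five concentrations; endpoints were interpolated linearly between bracketing concentrations, or set to the highest concentration if not reached. Abbreviation: GI50, concentration required for 50% inhibition of growth. TGI: concentration producing complete growth inhibition.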

Columns and labels:
Assay in all cases: NCI tumour cell line growth inhibition, 48 h
UO-31 renal = tested on: UO-31 renal
NCI/ADR-RES ovarian = tested on: NCI/ADR-RES ovarian
UACC-62 melanoma = tested on: UACC-62 melanoma
HOP-92 NSCLC = tested on: HOP-92 NSCLC
PC-3 prostate = tested on: PC-3 prostate
COLO 205 colon = tested on: COLO 205 colon
SF-268 CNS = tested on: SF-268 CNS
T-47D breast = tested on: T-47D breast
U251 CNS = tested on: U251 CNS
OVCAR-3 ovarian = tested on: OVCAR-3 ovarian

Structure (SMILES) | GI50 (UO-31 renal) [µM] | TGI (UO-31 renal) | GI50 (NCI/ADR-RES ovarian) [µM] | TGI (NCI/ADR-RES ovarian) [µM] | GI50 (UACC-62 melanoma) [µM] | TGI (UACC-62 melanoma) [µM] | GI50 (HOP-92 NSCLC) [µM] | TGI (HOP-92 NSCLC) | GI50 (PC-3 prostate) [µM] | TGI (PC-3 prostate) [µM] | GI50 (COLO 205 colon) [µM] | TGI (COLO 205 colon) [µM] | GI50 (SF-268 CNS) [µM] | TGI (SF-268 CNS) [µM] | GI50 (T-47D breast) [µM] | TGI (T-47D breast) [µM] | GI50 (U251 CNS) [µM] | TGI (U251 CNS) | GI50 (OVCAR-3 ovarian) [µM] | TGI (OVCAR-3 ovarian) [µM]
COc1ccc(C/C(C)=C(/c2ccc(OCCN3CCCCC3)cc2)c2ccc(OC(=O)NCc3ccccc3)cc2)cc1 | 0.34 | 0.669 µM | 0.443 | 0.893 | 0.455 | 0.817 | 0.258 | 0.575 µM | 0.398 | 0.778 | 0.437 | 0.9 | 0.413 | 0.787 | 0.303 | 0.746 | 0.403 | 0.791 µM | 0.413 | 0.762
O=C1C=CC(=O)C2=C1[C@@H](O)C1CC=CC3C(=O)O[C@@H]2C31 (some centres undefined) |  | > 71.5 µM |  |  |  | 35.8 |  | 45.4 µM |  |  |  | 37 |  | > 70.6 |  |  |  | > 100 µM |  | 36.8
C[C@@H]1[C@H](C)N1CC(O)Cn1ccnc1[N+](=O)[O-] (some centres undefined) |  | > 100 µM |  | > 100 |  | > 100 |  |  |  | > 100 |  | > 100 |  | > 100 |  | > 100 |  | > 100 µM |  | > 100
CC1(C)C2CCC13C(=O)C1OC3(C2)C2C(=O)c3ccccc3C(=O)C12 (centres undefined) | > 100 | > 100 µM | 12.1 | > 100 |  |  | > 100 | > 100 µM | 77.2 | > 100 | > 100 | > 100 | > 100 | > 100 | > 100 | > 100 | > 100 | > 100 µM |  | 
N/N=C(/C(=O)Nc1cccc(Cl)c1)C(C(=O)c1ccc(O)cc1O)C1OC(=O)c2ccccc21 (centres undefined) |  | > 100 µM |  |  |  | > 100 |  |  |  |  |  | > 100 |  | > 100 |  |  |  | > 100 µM |  | > 100
CC(CN(C)C)/C(=N\Nc1ccccc1)c1ccccc1 (centres undefined) |  | 3.28 µM |  |  |  | 12.3 |  |  |  |  |  | 2.55 |  | 16.6 |  |  |  | 5.88 µM |  | 6.83
CSc1nnc(CCC(=O)Nc2c(C)cccc2C)o1 |  | > 100 µM |  |  |  | > 100 |  | > 100 µM |  |  |  | > 100 |  | > 100 |  |  |  | > 100 µM |  | > 100
C=C/C=C/NC(=O)OCc1ccccc1 |  | > 100 µM |  |  |  | > 100 |  | > 100 µM |  |  |  | > 100 |  | > 100 |  |  |  | > 100 µM |  | > 100
O=C1OCC2=C1C(c1cccc(Cl)c1)c1cc3c(cc1N2CCO)OCCO3 (centres undefined) | 0.0736 | > 69.4 µM | 0.0631 | 0.373 | 0.0367 | > 70 |  |  | 0.0502 | 13.1 | 0.0971 | 0.651 | 0.0598 | 13.2 | 0.0677 | > 100 | 0.0542 | 7.14 µM | 0.0251 | 0.0618
CC(=O)Nc1ccc(S(=O)(=O)N/N=C/CN2C(=O)c3ccccc3C2=O)cc1 |  | > 100 µM |  |  |  | > 100 |  |  |  |  |  | > 100 |  | > 100 |  |  |  | > 100 µM |  | 
O=[N+]([O-])c1ccc(-n2nnc(C3=NCCN3)c2-c2ccccc2)cc1 |  | > 100 µM |  |  |  | > 100 |  | > 100 µM |  |  |  | > 100 |  | > 100 |  |  |  | > 100 µM |  | > 100
C[C@H](OCc1ccccc1)C(=O)N1CCS(=O)(=O)N2CCC[C@@H]2C1=O |  | > 100 µM |  |  |  | > 100 |  | > 100 µM |  |  |  | > 100 |  | > 100 |  |  |  | > 100 µM |  | > 100
O=C(O)CC[C@H](NC(=O)c1ccc(-n2nc3ccc(O)cc3nc2=O)cc1)C(=O)O |  | > 100 µM |  |  |  | > 100 |  | > 100 µM |  |  |  | > 100 |  | > 100 |  |  |  | > 100 µM |  | > 100
CC[C@@]1(O)C(=O)OCc2c1cc1n(c2=O)Cc2cc3cc4c(cc3nc2-1)OCO4 |  | 0.0251 µM and < 0.015 µM |  | > 100 |  | 0.00717 |  | 0.166 µM and 0.051 µM |  | > 100 | < 0.0341 | 0.71 |  |  |  | 0.427 |  | 0.0171 µM and 0.0613 µM | 0.0135 | 0.0793
COc1cc(OC)c2nc(C)c3c(c2c1)SCC3 |  | 48.8 µM |  | 65.5 |  | 56.4 |  |  |  | 53.1 |  | > 100 |  | 44.6 |  | 58 |  | 55.9 µM |  | 36.4
C=C1CC2OC(=O)C(=C)C2C(O)C2C(=C)CCC12 (centres undefined) |  | 29.7 µM |  |  |  | 12.8 |  | 5.84 µM |  |  |  | 12.9 |  | 32.3 |  |  |  | 30.8 µM |  | 22.3
OC1(C23CC4CC(CC(C4)C2)C3)CSCC1(O)C12CC3CC(CC(C3)C1)C2 (centres undefined) |  | > 100 µM |  |  |  | > 100 |  | > 100 µM |  |  |  | > 100 |  | > 100 |  |  |  |  |  | > 100
O=C1C(c2ccccc2)=C(O)c2cccc3cccc1c23 |  | > 100 µM |  |  |  | > 100 |  | > 100 µM |  |  |  | > 100 |  | > 100 |  |  |  | > 100 µM |  | > 100
COc1c(O)c2c3c(cc(C)cc3c1C(C)C)OC2 |  | > 100 µM |  |  |  | > 100 |  | > 100 µM |  |  |  | > 100 |  | > 100 |  |  |  | > 100 µM |  | > 100
COc1ccc2c(c1)C(=O)c1ccc(OC)cc1C2=S |  | > 100 µM |  |  |  | > 100 |  | > 100 µM |  |  |  | > 100 |  | > 100 |  |  |  | 61.7 µM |  | > 100
Cc1ccccc1C1OC(=O)c2ccc3ccccc3c21 (centres undefined) |  | 10.9 µM |  |  |  | 6.97 |  | 49.9 µM |  |  |  | 2.28 |  | 14.8 |  |  |  | 13.3 µM |  | 16.2
CCOC(C[C@H](O[Si](C)(C)C(C)(C)C)[C@H]1COC(=S)S1)OCC |  | > 100 µM |  |  |  |  |  |  |  |  |  | > 100 |  | > 100 |  |  |  | > 100 µM |  | > 100
COc1cc2c[n+](C)c3c4cc(OC)c(OC(C)C)cc4ccc3c2cc1OC |  | > 100 µM |  |  |  | > 100 |  | > 100 µM |  |  |  | 31.2 |  | > 100 |  |  |  | > 100 µM |  | 63.8
COc1cccc(N2C(=O)C3c4[nH]c5ccccc5c4C4CCCC4C3C2=O)c1 (centres undefined) |  |  |  | > 10 |  | > 10 |  | > 10 µM |  | > 10 |  | > 10 |  | > 10 |  | > 10 |  | > 10 µM |  | > 10
